In patent publication US12091402B2 (Avilar Therapeutics, Inc., priority 2021, dated 2024) one finds EC50 and Kd data, which are given here for 8 molecules.

Usually EC50 stands for the concentration that produces a half-maximal response. The Kd is the equilibrium constant for the complex coming apart.

The target in experiment [1] is T1, ASGPR receptor on the cell surface (HepG2 cells) (Homo sapiens, UniProt P07306).
T1 construct: host or cells: HepG2
T1 sequence (P07306 1-291): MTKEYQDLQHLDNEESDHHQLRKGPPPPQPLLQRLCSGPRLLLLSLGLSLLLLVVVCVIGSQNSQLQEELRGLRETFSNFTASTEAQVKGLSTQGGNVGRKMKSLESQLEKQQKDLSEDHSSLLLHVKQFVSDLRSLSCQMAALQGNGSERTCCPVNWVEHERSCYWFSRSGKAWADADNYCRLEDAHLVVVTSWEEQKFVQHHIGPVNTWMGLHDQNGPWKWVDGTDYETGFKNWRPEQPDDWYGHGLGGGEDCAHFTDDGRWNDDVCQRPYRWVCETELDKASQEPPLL
T1 sequence (P07307 1-311 partner): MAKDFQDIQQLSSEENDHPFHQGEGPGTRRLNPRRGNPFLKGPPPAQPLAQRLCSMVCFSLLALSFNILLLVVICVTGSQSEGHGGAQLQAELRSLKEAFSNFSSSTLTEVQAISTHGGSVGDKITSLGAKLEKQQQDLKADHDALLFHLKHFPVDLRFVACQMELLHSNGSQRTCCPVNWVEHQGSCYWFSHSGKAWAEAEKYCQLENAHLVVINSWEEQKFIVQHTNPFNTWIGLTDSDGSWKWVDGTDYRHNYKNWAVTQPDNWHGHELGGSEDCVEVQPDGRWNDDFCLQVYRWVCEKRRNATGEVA
The experiment is described as follows: Ternary complex formation assay (flow cytometry, HepG2). In kind it is cell-based. The text has this:
The ternary complex formation assay is designed to identify the concentration of Degrader required to form a complex between the degrader, a constant concentration of fluorescently-labeled antibody and the ASGPR receptor on the cell surface. The peak mean fluorescence intensity (MFI) occurs at the optimal degrader concentration for ternary complex formation. Sub-optimal concentrations of degrader (too much or too little) results in fewer complexes formed and a reduced […].
Human IgG (Sigma-Aldrich, 14506) was covalently labeled with Alexa Fluor 488 using the Alexa Fluor™ 488 Protein Labeling Kit (Thermo Fisher, A10235) following the manufacturer's instructions. HepG2 cells (ATCC, HIB-8065) were cultured to about 70% confluence and harvested by trypsinization. Single cell suspensions of HepG2 cells were plated in 96 well plates at 1×10^5 cells/well in cell culture media (DMEM supplemented with […]) and placed at 4° C. For studies using human IgG, cells were incubated with 100 nM AF488-labeled anti-human IgG and serial dilutions of IgG-based degrader for 1 hour at 4° C. For studies using DNP, cells were incubated with 100 nM AF488-labeled polyclonal rabbit anti-dinitrophenyl (DNP) antibodies (ThermoFisher) and serial dilutions of DNP-based degrader for 1 hour at 4° C. After washing once with ice-cold PBS containing 0.1% BSA and 0.1% sodium azide, cells were resuspended in 150 uL PBS+0.1% BSA and cell-associated AF488 fluorescence was measured by flow cytometry using the iQue® Screener PLUS Flow Cytometer (IntelliCyt).
(A flow cytometer gives signals particle by particle.)

The subject of another experiment is HepG2 cells. In words: Cellular uptake assay of AF488-labeled antibody (HepG2). In kind it is cell-based. Here is the method:
The cellular uptake assay is designed to measure compound-mediated cellular uptake of fluorescently labeled antibody following ternary complex formation with the ASGPR receptor and endocytosis of the entire complex into cells.
Human IgG (Sigma-Aldrich, 14506) was covalently labeled with Alexa Fluor 488 using the Alexa Fluor™ 488 Protein Labeling Kit (Thermo Fisher, A10235) following the manufacturer's instructions. HepG2 cells were plated in DMEM supplemented with 10% FBS at 5,000 cells per well in a 96-well microtiter plate and incubated for approximately 18 hours at 37° C./5% CO2. For studies using human IgG, 100 nM AF488-labeled human IgG antibodies and serial dilutions of IgG-based degrader (0.1% DMSO final concentration) were added to the cells and the mixture was incubated at 37° C. for 6 hours. For studies using DNP, 100 nM AF488-labeled DNP antibodies and serial dilutions of DNP-based degrader (0.1% DMSO final concentration) were added to the cells and the mixture was incubated at 37° C. for 6 hours. HepG2 cells were fixed in 100% methanol at −20° C. for 20 min, washed 3× with PBS, then stained with DAPI (Thermo, Cat #H3570). HepG2 cells were imaged for DAPI and Alexa Fluor 488 using the Operetta CLS, high-content analysis system (PerkinElmer). Data is presented as the ratio of the number of cells positive for hIgG or DNP (AF-488 fluorescence) over the total cell number (measured by DAPI).

A further experiment has as its target IgG. The experiment is described as follows: Affinity to IgG by surface plasmon resonance (SPR). In kind it is binding. The method, then:
Immobilization levels ranging from 1000-1300 resonance units (RU) are obtained. The running buffer is 10 mM HEPES, pH 7.4, 400 mM NaCl, 0.005% P20, […].
For orientation: SPR reads the build-up and loss of mass on a sensor chip optically.

The target in a further experiment is T2, ASGPR (Homo sapiens, UniProt P07306).
T2 sequence (P07306 1-291): T1 sequence (P07306 1-291)
The experiment is described as follows: Affinity to ASGPR by surface plasmon resonance (SPR).

The mark [2] stands for this setting: HepG2 cells, 100 nM AF488-labeled antibody, 37° C. for 6 hours, class symbols, read-out: Uptake Assay EC50.
[3] abbreviates: HepG2 cells, read-out: Uptake EC50.
Setting [4] is: Biacore 8K, 25° C., IgG on CM5 chip, read-out: IgG SPR Binding Kd.

Like-named read-outs stand apart in the source and are kept apart here.

On to `CC(C)C[C@@H]1NC(=O)[C@H](Cc2c[nH]cn2)NC(=O)[C@H](Cc2c[nH]c3ccccc23)NC(=O)[C@H](C)NC(=O)[C@@H](NC(=O)[C@@H](N)CC(=O)O)CSSC[C@@H](C(=O)N[C@H](C(N)=O)[C@@H](C)O)NC(=O)[C@H](Cc2c[nH]c3ccccc23)NC(=O)[C@H](C(C)C)NC(=O)[C@H](CC(C)C)NC(=O)[C@H](CCC(=O)NCCOCCOCCOCCOCCNC(=O)CCCc2cn(CCCCCC(=O)NC(COCCC(=O)NCCOCCOCCOCCOC[C@@]34CO[C@@H](O3)[C@H](Nc3nc(Cl)ns3)[C@@H](O)[C@H]4O)COCCC(=O)NCCOCCOCCOCCOC[C@@]34CO[C@@H](O3)[C@H](Nc3nc(Cl)ns3)[C@@H](O)[C@H]4O)nn2)NC(=O)CNC1=O` [Compound 3], for which the EC50 is less than 100 nM in experiment [1], less than 100 nM in experiment [1] (read-out: Ternary Complex EC50), 500 to 1000 nM with HepG2 cells (setting [2]) and less than 100 nM with HepG2 cells (setting [3]).
Consider `CC(C)C[C@@H]1NC(=O)[C@H](Cc2c[nH]cn2)NC(=O)[C@H](Cc2c[nH]c3ccccc23)NC(=O)[C@H](C)NC(=O)[C@@H]2CSSC[C@H](NC(=O)[C@H](Cc3c[nH]c4ccccc34)NC(=O)[C@H](C(C)C)NC(=O)[C@H](CC(C)C)NC(=O)[C@H](CCC(=O)O)NC(=O)CNC1=O)C(=O)N[C@@H]([C@@H](C)O)C(=O)N1CCC[C@@H]1C(=O)N1C[C@@H](NC(=O)CNC(COCCC(=O)NCCOCCOCCOCCOC[C@@]34CO[C@@H](O3)[C@H](Nc3cncc(C(F)(F)F)n3)[C@@H](O)[C@H]4O)COCCC(=O)NCCOCCOCCOCCOC[C@@]34CO[C@@H](O3)[C@H](Nc3cncc(C(F)(F)F)n3)[C@@H](O)[C@H]4O)C[C@H]1C(=O)N[C@@H](CC(=O)O)C(=O)N2` [Compound 73], for which the values for the EC50 (in experiment [1]; in the experiment on HepG2 cells (setting [3])) were less than 100 nM and 500 to 1000 nM, respectively.
With `CC(C)C[C@@H]1NC(=O)[C@H](Cc2c[nH]cn2)NC(=O)[C@H](Cc2c[nH]c3ccccc23)NC(=O)[C@H](C)NC(=O)[C@@H]2CSSC[C@H](NC(=O)[C@H](Cc3c[nH]c4ccccc34)NC(=O)[C@H](C(C)C)NC(=O)[C@H](CC(C)C)NC(=O)[C@H](CCC(=O)O)NC(=O)CNC1=O)C(=O)N[C@@H]([C@@H](C)O)C(=O)N1CCC[C@@H]1C(=O)N1C[C@@H](NC(=O)CCOCCOCCNC(=O)CCCc3cn(CCCCCC(=O)NC(COCCC(=O)NCCOCCOCCOCCOC[C@@]45CO[C@@H](O4)[C@H](Nc4nc(Cl)ns4)[C@@H](O)[C@H]5O)COCCC(=O)NCCOCCOCCOCCOC[C@@]45CO[C@@H](O4)[C@H](Nc4nc(Cl)ns4)[C@@H](O)[C@H]5O)nn3)C[C@H]1C(=O)N[C@@H](CC(=O)O)C(=O)N2` [Compound 17], on IgG (setting [4]), the Kd is less than 100 nM. Besides, the EC50 with HepG2 cells (setting [2]) is less than 100 nM.
Consider `CC(C)C[C@@H]1NC(=O)[C@H](Cc2cnc[nH]2)NC(=O)[C@H](Cc2c[nH]c3ccccc23)NC(=O)[C@H](C)NC(=O)[C@@H]2CSSC[C@H](NC(=O)[C@H](Cc3c[nH]c4ccccc34)NC(=O)[C@H](C(C)C)NC(=O)[C@H](CC(C)C)NC(=O)[C@H](CCC(=O)O)NC(=O)CNC1=O)C(=O)N[C@@H]([C@@H](C)O)C(=O)N1CCC[C@@H]1C(=O)N1C[C@@H](NC(=O)COCCOCCOCCOC[C@H]3OC[C@H](Nc4nccc(C(F)(F)F)n4)[C@@H](O)[C@H]3O)C[C@H]1C(=O)N[C@@H](CC(=O)O)C(=O)N2` [Compound 60], for which, in experiment [1] (HepG2 cells, 100 nM AF488-labeled antibody, 1 hour at 4° C., class symbols, read-out: Ternary Complex EC50), the EC50 is less than 100 nM. Moreover, at IgG (setting [4]), the Kd is less than 100 nM.
Consider `CC(C)C[C@@H]1NC(=O)[C@H](Cc2c[nH]cn2)NC(=O)[C@H](Cc2c[nH]c3ccccc23)NC(=O)[C@H](C)NC(=O)[C@@H](NC(=O)[C@H](CC(=O)O)NC(=O)CCOCCOCCOCCOCCNC(=O)CCCc2cn(CCCCCC(=O)NC(COCCC(=O)NCCOCCOCCOCCOC[C@H]3OC[C@H](Nc4nccc(C(F)(F)F)n4)[C@@H](O)[C@H]3O)COCCC(=O)NCCOCCOCCOCCOC[C@H]3OC[C@H](Nc4nccc(C(F)(F)F)n4)[C@@H](O)[C@H]3O)nn2)CSSC[C@@H](C(=O)N[C@H](C(N)=O)[C@@H](C)O)NC(=O)[C@H](Cc2c[nH]c3ccccc23)NC(=O)[C@H](C(C)C)NC(=O)[C@H](CC(C)C)NC(=O)[C@H](CCC(=O)O)NC(=O)CNC1=O` [Compound 22], for which the Kd at IgG (read-out: IgG KD) and on IgG (read-out: IgG SPR Binding Kd) was less than 100 nM in each case. The EC50 in the experiment with HepG2 cells (read-out: Uptake Assay EC50) and in the experiment on HepG2 cells (read-out: Uptake EC50) was less than 100 nM throughout.
Take `CC(C)C[C@@H]1NC(=O)[C@H](Cc2c[nH]cn2)NC(=O)[C@H](Cc2c[nH]c3ccccc23)NC(=O)[C@H](C)NC(=O)[C@@H]2CSSC[C@H](NC(=O)[C@H](Cc3c[nH]c4ccccc34)NC(=O)[C@H](C(C)C)NC(=O)[C@H](CC(C)C)NC(=O)[C@H](CCC(=O)O)NC(=O)CNC1=O)C(=O)N[C@@H]([C@@H](C)O)C(=O)N1CCC[C@@H]1C(=O)N1C[C@@H](NC(=O)CCOCCOCCOCCOCCNC(=O)CCCc3cn(CCCCCC(=O)NC(COCCC(=O)NCCOCCOCCOCCOC[C@H]4OC[C@H](Nc5nccc(C(F)(F)F)n5)[C@@H](O)[C@H]4O)(COCCC(=O)NCCOCCOCCOCCOC[C@H]4OC[C@H](Nc5nccc(C(F)(F)F)n5)[C@@H](O)[C@H]4O)COCCC(=O)NCCOCCOCCOCCOC[C@H]4OC[C@H](Nc5nccc(C(F)(F)F)n5)[C@@H](O)[C@H]4O)nn3)C[C@H]1C(=O)N[C@@H](CC(=O)O)C(=O)N2` [Compound 86]: the EC50 in experiment [1] (HepG2 cells, ternary complex formation, read-out: TCF EC50) was less than 100 nM. Also, on ASGPR, the Kd was less than 100 nM.
Regarding `O=C(CCOCC(COCCC(=O)NCCOCCOCCOCCOC[C@@]12CO[C@@H](O1)[C@H](NC(=O)C(F)(F)F)[C@@H](O)[C@H]2O)NC(=O)COCCOCCOCCNc1ccccc1)NCCOCCOCCOCCOC[C@@]12CO[C@@H](O1)[C@H](NC(=O)C(F)(F)F)[C@@H](O)[C@H]2O` [A12, 3,3′-((2-(2-(2-(2-(2-(phenylamino)ethoxy)ethoxy)ethoxy)acetamido)propane-1,3-diyl)bis(oxy))bis(N-(1-((1S,2R,3R,4R,5S)-2,3-dihydroxy-4-(2,2,2-trifluoroacetamido)-6,8-dioxabicyclo[3.2.1]octan-1-yl)-2,5,8,11-tetraoxatridecan-13-yl)propanamide)], the EC50 in experiment [1] (HepG2 cells, 100 nM AF488-labeled antibody, 1 hour at 4° C., numeric bounds, read-out: Ternary Complex EC50) is greater than 10000 nM.
For `CC(C)C[C@@H]1NC(=O)[C@H](Cc2cnc[nH]2)NC(=O)[C@H](Cc2c[nH]c3ccccc23)NC(=O)[C@H](C)NC(=O)[C@@H]2CSSC[C@H](NC(=O)[C@H](Cc3c[nH]c4ccccc34)NC(=O)[C@H](C(C)C)NC(=O)[C@H](CC(C)C)NC(=O)[C@H](CCC(=O)O)NC(=O)CNC1=O)C(=O)N[C@@H]([C@@H](C)O)C(=O)N1CCC[C@@H]1C(=O)N1C[C@H](NC(=O)CNC(COCCC(=O)NCCOCCOCCOCCOC[C@H]3OC[C@H](Nc4cncc(C(F)(F)F)n4)[C@@H](O)[C@H]3O)COCCC(=O)NCCOCCOCCOCCOC[C@H]3OC[C@H](Nc4cncc(C(F)(F)F)n4)[C@@H](O)[C@H]3O)C[C@H]1C(=O)N[C@@H](CC(=O)O)C(=O)N2` [Compound 92], the Kd at IgG (SPR, read-out: IgG KD) was less than 100 nM. The EC50 in the experiment with HepG2 cells (setting [3]) was less than 100 nM.
